Usually Km stands for the substrate concentration at which the rate is half of its maximum. A word on the kcat: it is the maximal rate divided by the concentration of active sites.

Results on two molecules are retold here after patent EP3660147A1, “PROCESS FOR SELECTIVE SYNTHESIS OF 4-HYDROXYISOPHORONE AND 4-KETOISOPHORONE BY FUNGAL PEROXYGENASES” (Consejo Superior de Investigaciones Científicas (CSIC), priority 2018, dated 2020).

Values joined by “and” are separate entries in the source; they are usually repeats but may differ in a detail not shown here. Equal entries are not always repeated.

One data set deals with CYP102A1 variants. Particulars: isophorone hydroxylation; when decoy molecules were used; range over variants; cited from earlier work.
Data set [1] deals with Chaetomium globosum unspecific peroxygenase CglUPO, wild-type, SEQ ID NO 1. The data set can be described thus: Enzyme kinetics of isophorone hydroxylation (GC-MS product quantification). It counts as biochemical. The following applies: 6.25-6400 µM substrate, 100 nM enzyme, 0.5 mM H2O2, 3 min, mean of three replicates with standard errors. The source says: (§1) AaeUPO (isoform II, 46 kDa), the first UPO described in 2004 (R. Ullrich and M. Hofrichter, FEBS Lett. 2005, 579, 6247-6250), is a wild-type (i.e. non-recombinant) peroxygenase purified from cultures of A. aegerita TM-A1, grown in soybean-peptone medium. MroUPO is another wild-type peroxygenase (32 kDa) purified from cultures of M. rotula DSM-25031 (German Collection of Microorganisms and Cell Cultures, Braunschweig). CglUPO (36 kDa) is a third wild-type peroxygenase recently purified from cultures of C. globosum DSM-62110.
Reactions were carried out with 6.25-6400 µM substrate and 100 nM enzyme. They were initiated adding 0.5 mM H2O2 and stopped by vigorous shaking in 5 mM sodium azide. Reaction times in which the reaction velocity was linear were previously selected: 5 min for AaeUPO, 3 min for CglUPO and 1 min for rHinUPO. All reactions were performed in triplicates. Product quantification was carried out by GC-MS using external standard curves, and kinetic parameters - turnover number (kcat), Michaelis constant (Km) and catalytic efficiency (kcat/Km) - were obtained by fitting the data to the Michaelis-Menten equation, or the corresponding variation of this equation when substrate inhibition is occurring, using SigmaPlot (Systat Softwarwe Inc., San Jose, CA, USA). […]

In data set [2] the test system is Humicola insolens unspecific peroxygenase rHinUPO, recombinant protein, SEQ ID NO 2. The description is as above. It counts as biochemical. Particulars: 6.25-6400 µM substrate, 100 nM enzyme, 0.5 mM H2O2, 1 min, mean of three replicates with standard errors. The source says:
The rCciUPO (44 kDa) and rHinUPO recombinant enzymes were provided by Novozymes A/S. rCciUPO corresponds to the protein model 7249 from the sequenced C. cinerea genome available at the JGI (http://genome.jgi.doe.gov/Copci1) used in several studies (E. D. Babot, J. C. del Río, L. Kalum, A. T. Martínez and A. Gutiérrez, Biotechnol. Bioeng. 2013, 110, 2332; E. D. Babot, J. C. del Río, M. Cañellas, F. Sancho, F. Lucas, V. Guallar, L. Kalum, H. Lund, G. Gröbe, K. Scheibner, R. Ullrich, M. Hofrichter, A. T. Martínez and A. Gutiérrez, Appl. Environ. Microbiol. 2015, 81, 4130-4142; E. D. Babot, J. C. del Río, L. Kalum, A. T. Martínez and A. Gutiérrez, ChemCatChem 2015, 7, 283-290). The rHinUPO sequence has been more recently reported (Patent US 9908860 B2) and used for oxyfunctionalizations that are not catalyzed by other UPOs. Both UPOs were expressed in Aspergillus oryzae (patent WO/2008/119780).
Reactions were carried out with 6.25-6400 µM substrate and 100 nM enzyme. […] Product quantification was carried out by GC-MS using external standard curves, and kinetic parameters - turnover number (kcat), Michaelis constant (Km) and catalytic efficiency (kcat/Km) - were obtained by fitting the data to the Michaelis-Menten equation, or the corresponding variation of this equation when substrate inhibition is occurring, using SigmaPlot (Systat Softwarwe Inc., San Jose, CA, USA). […]

Substrate in data set [3]: CC1=CC(=O)CC(C)(C)C1
The data set is described as above. It counts as biochemical, Agrocybe aegerita. The following applies: other: isophorone hydroxylation; 6.25-6400 µM substrate, 100 nM enzyme, 0.5 mM H2O2, 5 min; mean of three replicates with standard errors.
Excerpt: as §1
Reactions were carried out with 6.25-6400 µM substrate and 100 nM enzyme. They were initiated adding 0.5 mM H2O2 and stopped by vigorous shaking in 5 mM sodium azide. Reaction times in which the reaction velocity was linear were previously selected: 5 min for AaeUPO, 3 min for CglUPO and 1 min for rHinUPO. All reactions were performed in triplicates. Product quantification was carried out by GC-MS using external standard curves, and kinetic parameters - turnover number (kcat), Michaelis constant (Km) and catalytic efficiency (kcat/Km) - were obtained by fitting the data to the Michaelis-Menten equation, or the corresponding variation of this equation when substrate inhibition is occurring, using SigmaPlot (Systat Softwarwe Inc., San Jose, CA, USA).
The analyses were performed with a Shimadzu GC-MS QP 2010 Ultra system, using a fused-silica DB-5HT capillary column (30 m × 0.25 mm internal diameter, 0.1 µm film thickness) from J&W Scientific. The oven was heated from 50 °C (1.5 min) to 90 °C (2 min) at 30 °C min^-1, and then from 90 °C to 250 °C (15 min) at 8 °C min^-1. The injection was performed at 250 °C and the transfer line was kept at 300 °C. Compounds were identified by comparing their mass spectra and retention times with those of the available authentic standards and with the NIST library.

On to `CC1=CC(=O)CC(C)(C)C1` [isophorone, 3,5,5-Trimethyl-2-cyclohexen-1-one], for which, in the data set with CYP102A1 variants, the Km is 380 to 440 µM and the turnover numbers was 2.5 to 5.5 s⁻¹. Further, in data set [1], the Km is 243 ± 19.8 µM; the kcat is 4.4 s⁻¹ and 3.8 ± 0.1 s⁻¹. Moreover, in data set [2], the Michaelis constant (Km) came to 288 ± 39.9 µM and the turnover number (kcat) came out at 23.3 ± 1.4 s⁻¹.

B1: Agrocybe aegerita unspecific peroxygenase AaeUPO (isoform II), wild-type, SEQ ID NO 3 (Cyclocybe aegerita) (protein)
chain: EPGLPPGPLENSSAKLVNDEAHPWKPLRPGDIRGPCPGLNTLASHGYLPRNGVATPVQIINAVQEGLNFDNQAAVFATYAAHLVDGNLITDLLSIGRKTRLTGPDPPPPASVGGLNEHGTFEGDASMTRGDAFFGNNHDFNETLFEQLVDYSNRFGGGKYNLTVAGELRFKRIQDSIATNPNFSFVDFRFFTAYGETTFPANLFVDGRRDDGQLDMDAARSFFQFSRMPDDFFRAPSPRSGTGVEVVIQAHPMQPGRNVGKINSYTVDPTSSDFSTPCLMYEKFVNITVKSLYPNPTVQLRKALNTNLDFFFQGVAAGCTQVFPYGRD
notes: is a wild-type (i.e. non-recombinant) peroxygenase purified from cultures of A. aegerita TM-A1; made in house; host or cells: Agrocybe aegerita TM-A1 cultures (native producer, non-recombinant)
For B1, in data set [3], the Km worked out at 1381.3 ± 196.7 µM, the kcat was found to be 20.1 ± 1.1 s⁻¹ and the kcat/Km is recorded as 1.4±0.1 x 10^4 M^-1·s^-1.
